Reference: US5288757A, “Aminosulfonyl urea ACAT inhibitors and a method of lowering blood cholesterol levels therewith” (priority 1993, dated 1994)
Where a name gives a salt, the structure may show the parent alone. Read-outs that look alike come from different tables or passages of the source.

Tested on: Plasma TC
Assay: in vivo screen designated APCC, plasma total cholesterol in rats on high fat, high cholesterol diet
Parameters: species or system male Sprague-Dawley rats
Details: read-out: % Change in Plasma TC Values (mg/dl); for change in vivo at 50 mg/kg: * dosed at 50 mg/kg
Description: In one in vivo screen designated APCC, male Sprague-Dawley rats (200 to 225 g) were randomly divided into treatment groups and dosed at 4 PM with either vehicle (CMC/Tween) or suspensions of compounds in vehicle. The normal chow diet was then replaced with a high fat, high cholesterol diet with 0.5% cholic acid. The rats consumed this diet ad libitum during the night and were sacrificed at 8 AM to obtain blood samples for cholesterol analysis using standard procedures. Statistical differences between mean cholesterol values for the same vehicle were determined using analysis of variance followed by Fisher's least significant test. Compounds were dosed at 30 mg/kg unless otherwise noted.

[1] = dosed at 30 mg/kg, rat, high fat, high cholesterol diet with 0.5% cholic acid
[2] = rat, high fat, high cholesterol diet with 0.5% cholic acid

Row | SMILES | change in vivo at 30 mg/kg [1] | also measured
1 | CC(C)c1cccc(C(C)C)c1NC(=O)NS(=O)(=O)N(C1CCCCC1)C1CCCCC1 [Example 29, N-[2,6-bis(1-methylethyl)phenyl]-N'-[(dicyclohexylamino)sulfonyl]urea] | -64% | 
2 | CCCCCCCCCCCCCCCCCCN(C)S(=O)(=O)NC(=O)Nc1c(C(C)C)cccc1C(C)C [Example 31, N-[2,6-bis(1-methylethyl)phenyl]-N'-[(methyloctadecylamino)sulfonyl]urea] | -60% | 
3 | C=CCN(CC=C)S(=O)(=O)NC(=O)Nc1c(C(C)C)cccc1C(C)C [Example 33, N-[2,6-bis(1-methylethyl)phenyl]-N'-[(di-2-propenylamino)sulfonyl]urea] | -67% | 
4 | CC(C)c1cccc(C(C)C)c1NC(=O)NS(=O)(=O)N(C(C)C)C(C)(C)C [Example 35, N-[2,6-bis(1-methylethyl)phenyl]-N'-[[(1,1-dimethylethyl)(1-methylethyl)amino]sulfonyl]urea] | -71% | 
5 | CC(C)c1cccc(C(C)C)c1NC(=O)NS(=O)(=O)N(c1ccccc1)c1ccccc1 [Example 3] | -37% | 
6 | CC(C)c1cccc(C(C)C)c1NC(=O)NS(=O)(=O)NC(c1ccccc1)c1ccccc1 [Example 2, N-[2,6-bis(1-methylethyl)phenyl]-N'-[[(diphenylmethyl)amino]sulfonyl]urea] |  | change in vivo at 50 mg/kg [2]: -14%
7 | CCC(C)N(C(C)CC)S(=O)(=O)NC(=O)Nc1c(C(C)C)cccc1C(C)C (centres unmarked) [Example 36, N-[2,6-bis(1-methylethyl)phenyl]-N'-[[bis(1-methylpropyl)amino]sulfonyl]urea] | -71% | 
8 | CCCCN(CCCC)S(=O)(=O)NC(=O)Nc1c(C(C)C)cccc1C(C)C [Example 43, N-[2,6-bis(1-methylethyl)phenyl]-N'-[(dibutylamino)sulfonyl]urea, monosodium salt] |  | change in vivo at 30 mg/kg (Rattus norvegicus): -68%
9 | CC(C)c1cccc(C(C)C)c1NC(=O)NS(=O)(=O)N1CCC(c2ccccc2)CC1 [Example 13, N-[2,6-bis(1-methylethyl)phenyl]-N'-[(4-phenyl-1-piperidinyl)sulfonyl]urea] | -67% | 
10 | CC(C)c1cccc(C(C)C)c1NC(=O)NS(=O)(=O)N(CCCN(C)C)CCCN(C)C [Example 15, N-[[bis[3-(dimethylamino)propyl]amino]sulfonyl]-N'-[2,6-bis(1-methylethyl)phenyl]urea] | -30% | 
11 | CCCCCCCCN(CCCCCCCC)S(=O)(=O)NC(=O)Nc1c(C(C)C)cccc1C(C)C [Example 12, N-[2,6-bis(1-methylethyl)phenyl]-N'-[(dioctylamino)sulfonyl]urea] |  | change in vivo at 50 mg/kg [2]: -41%
12 | CC(C)c1cccc(C(C)C)c1NC(=O)NS(=O)(=O)N(C(C)C)C(C)C [Example 1, N-[2,6-bis(1-methylethyl)phenyl]-N'-[[bis(1-methylethyl)amino]sulfonyl]ure] |  | change in vivo at 50 mg/kg [2]: -59%
13 | CCCCN(CCCC)S(=O)(=O)NC(=O)Nc1c(C(C)C)cccc1C(C)C [Example 4, N-[2,6-bis(1-methylethyl)phenyl]-N'-[(dibutylamino)sulfonyl]urea] |  | change in vivo at 50 mg/kg [2]: -66%
14 | CC(C)c1cccc(C(C)C)c1NC(=O)NS(=O)(=O)N1CCCCC1 [Example 39, Urea, N-[2,6 bis(1-methylethyl)phenyl]-N'-(1-piperidinylsulfonyl)] | -13% | 
15 | CC(C)c1cccc(C(C)C)c1NC(=O)NS(=O)(=O)N(Cc1ccccc1)C(C)C [Example 11, N-[2,6-bis(1-methylethyl)phenyl]-N'-[[(1-methylethyl)(phenylmethyl)amino]sulfonyl]urea] |  | change in vivo at 50 mg/kg [2]: -60%
16 | CCCCN(CC)S(=O)(=O)NC(=O)Nc1c(C(C)C)cccc1C(C)C [Example 34, N-[2,6-bis(1-methylethyl)phenyl]-N'-[(butylethylamino)sulfonyl]urea] | -70% | 
17 | CCCCCCCCCCN(CCCCCCCCCC)S(=O)(=O)NC(=O)Nc1c(C(C)C)cccc1C(C)C [Example 26, N-[2,6-bis(1-methylethyl)phenyl]-N'-[(didecylamino)sulfonyl]urea] | -57% | 
18 | CC(C)c1cccc(C(C)C)c1NC(=O)NS(=O)(=O)NCC(c1ccccc1)c1ccccc1 [Example 7, N-[2,6-bis(1-methylethyl)phenyl]-N'-[[(2,2-diphenylethyl)amino]sulfonyl]urea] |  | change in vivo at 50 mg/kg [2]: -20%
19 | CC(C)CN(CC(C)C)S(=O)(=O)NC(=O)Nc1c(C(C)C)cccc1C(C)C [Example 23, N-[2,6-bis(1-methylethyl)phenyl]-N'-[[bis(2-methylpropyl)amino]sulfonyl]urea] | -75% | 

Row | SMILES | change in vivo at 30 mg/kg [1] | also measured
20 | CC(C)NS(=O)(=O)NC(=O)Nc1c(C(C)C)cccc1C(C)C [Example 32, N-[2,6-bis(1-methylethyl)phenyl]-N'-[[(1-methylethyl)amino]sulfonyl]urea] | -17% | 
21 | CC(C)c1cccc(C(C)C)c1NC(=O)NS(=O)(=O)N1CCCC1 [Example 38, Urea, N-[2,6-bis(1-methylethyl)phenyl]-N'-(1-pyrrolidinylsulfonyl)] | -49% | 
22 | C=CCN(CC)S(=O)(=O)NC(=O)Nc1c(C(C)C)cccc1C(C)C [Example 24, N-[2,6-bis(1-methylethyl)phenyl]-N'-[[ethyl(2-propenyl)amino]sulfonyl]urea] | -48% | 
23 | CCCCCCCCN(C)S(=O)(=O)NC(=O)Nc1c(C(C)C)cccc1C(C)C [Example 19, N-[2,6-bis(1-methylethyl)phenyl]-N'-[(methyloctylamino)sulfonyl]urea] | -59% | 
24 | CC(C)c1cccc(C(C)C)c1NC(=O)NS(=O)(=O)N(Cc1ccccc1)Cc1ccccc1 [Example 9, N-[2,6-bis(1-methylethyl)phenyl]-N'-[(bis(phenylmethyl)amino)sulfonyl]urea] |  | change in vivo at 50 mg/kg [2]: -59%
25 | CC(C)c1cccc(C(C)C)c1NC(=O)NS(=O)(=O)NC1c2ccccc2-c2ccccc21 [Example 10, N-[2,6-bis(1-methylethyl)phenyl]-N'-[(9H-fluoren-9-ylamino)sulfonyl]urea] |  | change in vivo at 50 mg/kg [2]: -4%
26 | CC(C)c1cccc(C(C)C)c1NC(=O)NS(=O)(=O)N(CC1CCCO1)CC1CCCO1 (centres unmarked) [Example 17, N-[2,6-bis(1-methylethyl)phenyl]-N'-[[bis[(tetrahydro-2-furanyl)methyl]amino]sulfonyl]urea] | -53% | 
27 | CCCCCCN(CCCCCC)S(=O)(=O)NC(=O)Nc1c(C(C)C)cccc1C(C)C [Example 14] | -77% | 
28 | CCCCN(C)S(=O)(=O)NC(=O)Nc1c(C(C)C)cccc1C(C)C [Example 30, N-[2,6-bis(1-methylethyl)phenyl]-N'-[(butylmethylamino)sulfonyl]urea] | -56% | 
29 | CC(C)c1cccc(C(C)C)c1NC(=O)NS(=O)(=O)N(C(C)C)C1CCCCC1 [Example 21, N-[2,6-bis(1-methylethyl)phenyl]-N'[[cyclohexyl(1-methylethyl)amino]sulfonyl]urea] | -68% | 
30 | CC(C)c1cccc(C(C)C)c1NC(=O)NS(=O)(=O)N(C)CCc1ccccc1 [Example 20, N-[2,6-bis(1-methylethyl)phenyl]-N'-[[methyl(2-phenylethyl)amino]sulfonyl]urea] | -71% | 
31 | CCCCCN(CCCCC)S(=O)(=O)NC(=O)Nc1c(C(C)C)cccc1C(C)C [Example 22, N-[2,6-bis(1-methylethyl)phenyl]-N'-[(dipentylamino)sulfonyl]urea] | -76% | 
32 | CC(C)CCN(CCC(C)C)S(=O)(=O)NC(=O)Nc1c(C(C)C)cccc1C(C)C [Example 25, N-[[bis(3-methylbutyl)amino]sulfonyl]-N'-[2,6-bis(1-methylethyl)phenyl] urea] | -60% | 
33 | CCCCCCCCCCCCN(CCCCCCCCCCCC)S(=O)(=O)NC(=O)Nc1c(C(C)C)cccc1C(C)C [Example 27] | 5% | 
34 | CCCCCCCCCCCCCCN(C)S(=O)(=O)NC(=O)Nc1c(C(C)C)cccc1C(C)C [Example 37, N-[2,6-bis(l-methylethyl)phenyl]-N'-[(methyltetradecylamino)sulfonyl]urea] | -65% | 
35 | CCN(CC)S(=O)(=O)NC(=O)Nc1c(C(C)C)cccc1C(C)C [Example 18, N-[2,6-bis(1-methylethyl)phenyl]-N'-[(diethylamino)sulfonyl]urea] | -19% | 
36 | CC(C)c1cccc(C(C)C)c1NS(=O)(=O)NC(=O)N(Cc1ccccc1)Cc1ccccc1 [Example 42, N,-[[[2,6-bis(1-methylethyl)phenyl]amino]sulfonyl]-N,N-bis(phenylmethyl) urea] | -44% | 
37 | CCCCCCNS(=O)(=O)NC(=O)Nc1c(C(C)C)cccc1C(C)C [Example 16, N-[2,6-bis(1-methylethyl)phenyl]-N'-[(hexylamino)sulfonyl]urea] | -19% | 
38 | CC(C)c1cccc(C(C)C)c1NC(=O)NS(=O)(=O)Nc1c(C(C)C)cccc1C(C)C [Example 6, N-[2,6-bis(1-methylethyl)phenyl]-N'-[[[2,6-bis(1-methylethyl)phenyl]amino]sulfonyl]urea] |  | change in vivo at 50 mg/kg [2]: -54%
